The structures appear in SMILES notation.

This note sets out measurements from patent US4014883A, “Indoloquinolines, intermediates and processes” (Hoffmann-La Roche Inc., priority 1975, dated 1977).

A short description of series [1]: acute LD50 in mice. To be noted: mouse, in vivo.
Series [2] has as its system Sarcoma 180 (S-180). Briefly: inhibition of growth of transplantable Sarcoma 180 (S-180) tumors, C/T ratio. The series is classed as in vivo. The settings on record: S-180 in mice, once daily for 8 days, ratio greater than 2 = active.

Broadly, the LD50 is the dose at which mortality reaches 50%. A low value points to greater toxicity. As for `CN(C)CCn1c(=O)c2[nH]c3ccc(Cl)cc3c2c2ccccc21` [10-chloro-5-(2-dimethylaminoethyl)-7H-indolo[2,3-c]quinolin-6(5H)-one], the LD50 in series [1] (ip) is greater than 2000 mg/kg; in series [1] (po), greater than 4000 mg/kg. Further, the “C/T ratio (average tumor weight of untreated controls / treated)” value in series [2] (100 mg/kg i.p.) was found to be 3.50; in series [2] (100 mg/kg orally), 3.05.
